Source: ChEMBL document CHEMBL1201862, “PubChem BioAssay data set” (2004)
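Method: 48-hour compound exposure of cells in 96-well plates, five concentrations, linear interpolation of endpoints. GI50 marks 50% less growth.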 Active and inactive are the calls of the source. Cut-off read from the data, not from the text of the source: active = GI50 up to about 1.1 µM and inactive = higher.

Columns and labels:
Assay in all cases: DTP human tumour cell line panel, 48 h
NCI-H460 = test system: NCI-H460
SK-MEL-2 = test system: SK-MEL-2
OVCAR-5 = test system: OVCAR-5
SN12C = test system: SN12C
COLO 205 = test system: COLO 205
UACC-62 = test system: UACC-62
HCC 2998 = test system: HCC 2998
SNB-75 = test system: SNB-75
CCRF-CEM = test system: CCRF-CEM
T47D = test system: T47D
ACHN = test system: ACHN
CAKI-1 = test system: CAKI-1
HOP-62 = test system: HOP-62
SK-OV-3 = test system: SK-OV-3
UO-31 = test system: UO-31
SNB-19 = test system: SNB-19
KM12 = test system: KM12
DU-145 = test system: DU-145
HOP-92 = test system: HOP-92
RPMI-8226 = test system: RPMI-8226

Row | Structure (SMILES) | GI50 (NCI-H460) | GI50 (SK-MEL-2) | GI50 (OVCAR-5) | GI50 (SN12C) | GI50 (COLO 205) | GI50 (UACC-62) | GI50 (HCC 2998) | GI50 (SNB-75) | GI50 (CCRF-CEM) | GI50 (T47D) | GI50 (ACHN) | GI50 (CAKI-1) | GI50 (HOP-62) | GI50 (SK-OV-3) | GI50 (UO-31) | GI50 (SNB-19) | GI50 (KM12) | GI50 (DU-145) | GI50 (HOP-92) | GI50 (RPMI-8226)
1 | CCNC(=O)NNc1ncnc2c1c(-c1ccc(Cl)cc1)cn2-c1ccc(C)cc1 | 22.4 µM (inactive) | 20.4 µM (inactive) | 18 µM (inactive) | 16.5 µM (inactive) | 15.9 µM (inactive) | 15.3 µM (inactive) | 17.5 µM (inactive) | 16.7 µM (inactive) | 20.2 µM (inactive) | 14.6 µM (inactive) | 17.7 µM (inactive) | 25.4 µM (inactive) | 20.4 µM (inactive) | 27.4 µM (inactive) | 14.2 µM (inactive) | 18.2 µM (inactive) | 20.1 µM (inactive) | 21.5 µM (inactive) | 18.2 µM (inactive) | –
2 | N#Cc1cc2c(cc1C#N)/C(=N\c1cccc(N)n1)N/C2=N\c1cccc(N)n1 | 22.4 µM (inactive) | 21.6 µM (inactive) | > 100 µM (inactive) | 32.9 µM (inactive) | 15 µM (inactive) | 15.2 µM (inactive) | 20.5 µM (inactive) | 15.6 µM (inactive) | 4.74 µM (inactive) | 21.8 µM (inactive) | 20.4 µM (inactive) | 15.8 µM (inactive) | 24.3 µM (inactive) | 13.7 µM (inactive) | 15.7 µM (inactive) | 70 µM (inactive) | 36.8 µM (inactive) | > 100 µM (inactive) | – | 32.7 µM (inactive)
3 | Cc1cccc2c(N)c3cccc(C(=O)NCC[N+](C)(C)Cc4sccc4[N+](=O)[O-])c3nc12 | – | 72.9 µM (inactive) | 5.37 µM (inactive) | 0.332 µM (active) | 13.3 µM (inactive) | 13.6 µM (inactive) | 7.69 µM (inactive) | 7.28 µM (inactive) | > 100 µM (inactive) | 36.6 µM (inactive) | 3.78 µM (inactive) | 2.55 µM (inactive) | 2.6 µM (inactive) | 10.8 µM (inactive) | 20.5 µM (inactive) | 6.59 µM (inactive) | 9.68 µM (inactive) | 23.8 µM (inactive) | 34.5 µM (inactive) | –
4 | O=C(/C=C(\O)c1cc(-c2ccccc2)n(-c2ccccc2)n1)c1ccccc1 | 3.53 µM (inactive) | 13.4 µM (inactive) | 19.3 µM (inactive) | 2.56 µM (inactive) | 4.69 µM (inactive) | 2.99 µM (inactive) | 18.2 µM (inactive) | – | 1.24 µM (inactive) | 3.7 µM (inactive) | 3.35 µM (inactive) | 3.13 µM (inactive) | 3.46 µM (inactive) | 3.04 µM (inactive) | 4.27 µM (inactive) | 5.97 µM (inactive) | 4.48 µM (inactive) | 3.61 µM (inactive) | – | 1.8 µM (inactive)
5 | NC(CCc1ccccc1)(C(=O)O)c1ccccc1 (stereo unspecified) | > 100 µM (inactive) | > 100 µM (inactive) | > 100 µM (inactive) | > 100 µM (inactive) | – | > 100 µM (inactive) | > 100 µM (inactive) | > 100 µM (inactive) | > 100 µM (inactive) | > 100 µM (inactive) | > 100 µM (inactive) | > 100 µM (inactive) | > 100 µM (inactive) | – | > 100 µM (inactive) | > 100 µM (inactive) | > 100 µM (inactive) | > 100 µM (inactive) | > 100 µM (inactive) | –
6 | COC(=O)C1=C(C(=O)OC)C(N(C)C)C(C(=O)OC)=C(C(=O)OC)S1 | 57.1 µM (inactive) | > 100 µM (inactive) | > 100 µM (inactive) | > 100 µM (inactive) | > 100 µM (inactive) | > 100 µM (inactive) | > 100 µM (inactive) | > 100 µM (inactive) | – | > 100 µM (inactive) | > 100 µM (inactive) | > 100 µM (inactive) | > 100 µM (inactive) | > 100 µM (inactive) | > 100 µM (inactive) | > 100 µM (inactive) | > 100 µM (inactive) | > 100 µM (inactive) | – | > 100 µM (inactive)
7 | COC(O)C(=O)c1ccc2c(c1)CC1(C2)Cc2cc3c(cc2C1=O)CCC3 (stereo unspecified) | 27.9 µM (inactive) | 23.2 µM (inactive) | 22 µM (inactive) | 15.3 µM (inactive) | 20 µM (inactive) | 17.9 µM (inactive) | 19.1 µM (inactive) | 17.9 µM (inactive) | 11.9 µM (inactive) | 19.2 µM (inactive) | 17 µM (inactive) | 16.9 µM (inactive) | 19.5 µM (inactive) | 16.7 µM (inactive) | 16.9 µM (inactive) | 18.2 µM (inactive) | 20.9 µM (inactive) | 17.1 µM (inactive) | – | 12.3 µM (inactive)
8 | COC(=O)c1cc(C)n(CN(Cn2nc(C(=O)OC)cc2C)c2ccccc2)n1 | 57.9 µM (inactive) | 36.1 µM (inactive) | 48.4 µM (inactive) | 55.1 µM (inactive) | 16 µM (inactive) | 15.1 µM (inactive) | – | – | 16 µM (inactive) | 22 µM (inactive) | 18.7 µM (inactive) | 37.8 µM (inactive) | 97.3 µM (inactive) | > 100 µM (inactive) | 18.3 µM (inactive) | > 100 µM (inactive) | 29.4 µM (inactive) | 25.9 µM (inactive) | 66.1 µM (inactive) | 17.3 µM (inactive)
9 | O=C(NNc1nc(-c2ccccc2)cs1)C(F)(F)F | 63.5 µM (inactive) | 36.3 µM (inactive) | > 100 µM (inactive) | 75.7 µM (inactive) | 35.8 µM (inactive) | 58.7 µM (inactive) | 95.1 µM (inactive) | 19 µM (inactive) | 24.9 µM (inactive) | 23.9 µM (inactive) | 29.2 µM (inactive) | 45.8 µM (inactive) | 33.2 µM (inactive) | 61.1 µM (inactive) | 3.3 µM (inactive) | 63.8 µM (inactive) | 30.1 µM (inactive) | 53.1 µM (inactive) | – | 16.4 µM (inactive)
10 | Cc1cc(NS(=O)(=O)c2ccc(/N=N/c3c(Nc4ccccc4)nn(-c4ccc(S(=O)(=O)Nc5ccncn5)cc4)c3C)cc2)no1 | – | > 100 µM (inactive) | > 100 µM (inactive) | > 100 µM (inactive) | > 100 µM (inactive) | > 100 µM (inactive) | > 100 µM (inactive) | > 100 µM (inactive) | > 100 µM (inactive) | > 100 µM (inactive) | > 100 µM (inactive) | > 100 µM (inactive) | > 100 µM (inactive) | > 100 µM (inactive) | > 100 µM (inactive) | > 100 µM (inactive) | > 100 µM (inactive) | > 100 µM (inactive) | > 100 µM (inactive) | –
11 | CN(C)c1ccc(/N=C2/NC(=N\c3ccccc3)/C(=N/c3ccccc3)S2)cc1 | > 100 µM (inactive) | 98.2 µM (inactive) | > 100 µM (inactive) | > 100 µM (inactive) | > 100 µM (inactive) | 51.2 µM (inactive) | > 100 µM (inactive) | 27.2 µM (inactive) | 97.5 µM (inactive) | 53.1 µM (inactive) | 49.1 µM (inactive) | > 100 µM (inactive) | 41.6 µM (inactive) | 48.9 µM (inactive) | – | 87.3 µM (inactive) | > 100 µM (inactive) | > 100 µM (inactive) | > 100 µM (inactive) | –
12 | Cc1c(NC(=O)CSC(=S)N(C)C)c(=O)n(-c2ccccc2)n1C | > 100 µM (inactive) | > 100 µM (inactive) | > 100 µM (inactive) | > 100 µM (inactive) | > 100 µM (inactive) | – | > 100 µM (inactive) | > 100 µM (inactive) | > 100 µM (inactive) | > 100 µM (inactive) | > 100 µM (inactive) | > 100 µM (inactive) | > 100 µM (inactive) | > 100 µM (inactive) | > 100 µM (inactive) | > 100 µM (inactive) | > 100 µM (inactive) | > 100 µM (inactive) | – | > 100 µM (inactive)
13 | O=c1c2ccccc2n2c(-c3ccc(O)cc3)nnc2n1-c1ccccc1 | 17.8 µM (inactive) | 20.7 µM (inactive) | 96.6 µM (inactive) | 17.1 µM (inactive) | 77.6 µM (inactive) | 19.6 µM (inactive) | 49.1 µM (inactive) | 18.7 µM (inactive) | 14.8 µM (inactive) | 13.4 µM (inactive) | 16.1 µM (inactive) | 29.6 µM (inactive) | 20.4 µM (inactive) | 20.6 µM (inactive) | 3.72 µM (inactive) | 20.4 µM (inactive) | 49.2 µM (inactive) | 21.9 µM (inactive) | 23.3 µM (inactive) | –
14 | Cc1c(O)nc(-n2[nH]c3c(c2=O)CCCC3)[nH]c1=O | > 100 µM (inactive) | > 100 µM (inactive) | > 100 µM (inactive) | > 100 µM (inactive) | > 100 µM (inactive) | > 100 µM (inactive) | – | – | > 100 µM (inactive) | > 100 µM (inactive) | > 100 µM (inactive) | > 100 µM (inactive) | – | > 100 µM (inactive) | > 100 µM (inactive) | > 100 µM (inactive) | > 100 µM (inactive) | > 100 µM (inactive) | > 100 µM (inactive) | > 100 µM (inactive)
15 | COc1ccc2[nH]c3ccc4cc[n+](CCN5CCC(C6CCN(CC[n+]7ccc8ccc9[nH]c%10ccc(OC)cc%10c9c8c7)CC6)CC5)cc4c3c2c1 | – | > 52.7 µM (inactive) | > 76 µM (inactive) | 0.661 µM (active) | – | 0.938 µM (active) | – | 14.2 µM (inactive) | 0.274 µM (active) | 20.4 µM (inactive) | 0.18 µM (active) | 1.02 µM (active) | > 40.6 µM (inactive) | 6.37 µM (inactive) | > 100 µM (inactive) | 1.38 µM (inactive) | 0.818 µM (active) | 21.4 µM (inactive) | 0.303 µM (active) | –
